Measurements: patent US20210290648A1, “Potentiation of B-Lactam Antibiotics and B-Lactam/B-Lactamase Inhibitor Combinations Against Multidrug and Extensively Drug-Resistant Pseudomonas Aeruginosa Using Non-Ribosomal Tobramycin-Cyclam Conjugates” (University of Manitoba, priority 2018, published 2021)
Like-named read-outs stand apart in the source and are kept apart here.

What was measured:
WT P. aeruginosa PAO1 = assay: Checkerboard combination study / MIC; format: cell-based, Pseudomonas aeruginosa; conditions: for MIC: Pseudomonas aeruginosa; for FICI in the presence of ≤10 μM of 1: antibiotic + compound 1; for FICI in the presence of ≤10 μM of 1 / MIC of Antibiotics in the presence of ≤10 μM of 1 / FICI in the presence of ≤10 μM of 2 / MIC of Antibiotics in the presence of ≤10 μM of 2 / FICI in the presence of ≤10 μM of 3 / MIC of Antibiotics in the presence of ≤10 μM of 3: WT PAO1; for MIC of Antibiotics in the presence of ≤10 μM of 1: antibiotic + compound 1 ≤10 μM; for FICI in the presence of ≤10 μM of 2: antibiotic + compound 2; for MIC of Antibiotics in the presence of ≤10 μM of 2: antibiotic + compound 2 ≤10 μM; for FICI in the presence of ≤10 μM of 3: antibiotic + compound 3; for MIC of Antibiotics in the presence of ≤10 μM of 3: antibiotic + compound 3 ≤10 μM; for MIC of antibiotic alone in PAO1: PAO1 wild-type (Table 4)
PA 100036 = assay: Checkerboard combination study / MIC; format: cell-based, Pseudomonas aeruginosa; conditions: for MICCombination (antibiotic): MIC of antibiotic combined with compound 2; for FICI: antibiotic + compound 2; for MICAntibiotic: antibiotic alone; for FICAntibiotic: with compound 2
PA 101885 = assay: Checkerboard combination study / MIC; format: cell-based, Pseudomonas aeruginosa; conditions: for MICCombination (antibiotic): MIC of antibiotic combined with compound 2; for FICI: antibiotic + compound 2; for MICAntibiotic: antibiotic alone
PA 259 = assay: Checkerboard combination study / MIC; format: cell-based, Pseudomonas aeruginosa; conditions: for MICCombination (antibiotic): MIC of antibiotic combined with compound 2; for FICI: antibiotic + compound 2; for MICAntibiotic: antibiotic alone
PA 260 = assay: Checkerboard combination study / MIC; format: cell-based, Pseudomonas aeruginosa; conditions: for MICCombination (antibiotic): MIC of antibiotic combined with compound 2; for FICI: antibiotic + compound 2; for MICAntibiotic: antibiotic alone; for FICAntibiotic: with compound 2
PA 264 = assay: Checkerboard combination study / MIC; format: cell-based, Pseudomonas aeruginosa; conditions: for MICCombination (antibiotic): MIC of antibiotic combined with compound 2; for FICI: antibiotic + compound 2; for MICAntibiotic: antibiotic alone; for FICAntibiotic: with compound 2
PA 114228 = assay: Checkerboard combination study / MIC; format: cell-based, Pseudomonas aeruginosa; conditions: for MICCombination (antibiotic): MIC of antibiotic combined with compound 2; for FICI: antibiotic + compound 2; for MICAntibiotic: antibiotic alone
PAO200 = format: cell-based, Pseudomonas aeruginosa; conditions: for MIC of antibiotic alone in PAO200: PAO200 efflux-deficient
Excerpt: (§1) PAO200 is a tnexA-rnexB-oprM deletion strain while PAO750 lacks five important RND pumps (McxAB-OprM, MexCD-OprJ, MexEF-OprN, Mex JK, and MexXY) and the outer membrane protein OpmH (46, 47). Some of these pumps are homologues of broad substrate specificities that extrude different classes of antimicrobial agents and confer resistance on P. aeruginosa (48).
(§2) Antimicrobial Susceptibility Assay. The in vitro antimicrobial activity of all compounds/antibiotics against a panel of bacteria was evaluated by microbroth dilution method in accordance with the Clinical and Laboratory Standards Institute (CLSI) guidelines. Overnight grown bacterial cultures were diluted in saline to achieve a 0.5 McFarland turbidity, followed by 1:50 dilution in Mueller-Hinton broth (MHB) for inoculation to a final concentration of approximately 5×10^5CFU/mL. The antimicrobial agents were 2-fold serially diluted in MHB in a 96-well plate and incubated at 37° C. with equal volumes of inoculum for 18 h. The lowest concentration that prevented the visible growth of bacteria was defined as the MIC for each antimicrobial agent. The broth with or without bacterial cells was used as positive or negative control, respectively.
(§3) Checkerboard Assay. Combination studies with different antibiotics were performed in 96-well plates as previously described (22). Briefly, the antibiotic of interest was serially diluted in MHB along the abscissa while the adjuvant (newly synthesized conjugates) was serially diluted in MHB along the ordinate. This creates a 10×7 matrix wherein each well consists of a combination of different antibiotic and adjuvant concentrations. Overnight grown bacterial cultures were diluted in saline to achieve a 0.5 McFarland turbidity, followed by 1:50 dilution in Mueller-Hinton broth (MHB) for inoculation to a final concentration of approximately 5×10^5CFU/mL. Equal volume of this bacterial culture was then added to each well and incubated at 37° C. for 18 h. After incubation, the plates were read on EMax® Plus microplate reader (Molecular Devices, Sunnyvale, Calif., USA) at 590 nm. MIC was recorded as wells with the lowest concentration of drugs with no bacterial growth. The fractional inhibitory concentration (FIC) for each antibiotic was calculated by dividing the MIC of the antibiotic in the presence of adjuvant by the MIC of the antibiotic alone. Similarly, the FIC of adjuvant was calculated by dividing the MIC of the adjuvant in the presence of antibiotic by the MIC of the adjuvant alone. FIC index is the sum of both FICs. FIC indices of <0.5 were deemed synergistic; 0.5-4, no interaction; and >4, antagonistic.

PAO750 = format: cell-based, Pseudomonas aeruginosa; conditions: for MIC of antibiotic alone in PAO750: PAO750 efflux-deficient
Excerpt: as §1, §2, §3

[1] = test system: Galleria mellonella larvae; assay: Galleria mellonella tolerability study; conditions: for survival of larvae: 100 mg/kg and 200 mg/kg injected alone, after 48 h
Description: In vitro and in vivo discordances have been observed in antimicrobial chemotherapy, thus, therapeutic efficacy may not necessarily be reliably extrapolated based on in vitro data alone. […] Colistin (100 mg/kg), an antibiotic well known for its toxicity towards eukaryotes, served as a positive control for this experiment while PBS served as negative control. […] Survivability was scored for a total of 4 days.
In vivo larvae-infection model. In vivo synergistic effects were determined using Galleria mellonella infection model, as previously described (20). Briefly, worms were purchased from The Worm Lady® Live Feeder (ON, Canada), stored in their natural habitat at 16° C., and used within 10 days of delivery. The worms (average weight of 250 mg) were used for tolerability and efficacy studies. Tolerability study was performed by injecting 10 μL of antimicrobial agents only at concentrations equivalent to 100 mg/kg or 200 mg/kg. The worms (ten in each group) were incubated at 37° C. and monitored for 96 h. […] Overnight grown culture of respective MDR P. aeruginosa isolate was standardized to 0.5 McFarland standard and diluted in PBS to a final concentration of […]. 10 μL of this solution (5 CFU) was injected into each worm and incubated for 3 h at 37° C. […] Worms treated with 10 μL PBS or high concentrations of test antibiotics served as negative and positive control, respectively. The worms were incubated at 37° C. in Petri dishes lined with filter paper and scored for survivability every 6 h for up to 48 h. This experiment was repeated to give a total of thirty worms (n=30) in each case. Survival data curves were plotted using Kaplan-Meier survival analysis.

CC(C)(O/N=C(\C(=O)N[C@@H]1C(=O)N2C(C(=O)[O-])=C(C[n+]3ccccc3)CS[C@H]12)c1csc(N)n1)C(=O)O [Ceftazidime]
MIC of antibiotic + Compound 2 in PAO1 (WT P. aeruginosa PAO1; + compound 2 ≤8.7 μM, PAO1): 0.5 µg/mL
MIC (WT P. aeruginosa PAO1; PAO1, antibiotic alone, WT PAO1 (Table 2), read-out: MIC alone): 2 µg/mL
FICI in the presence of ≤10 μM of 1 (WT P. aeruginosa PAO1): 0.25
MIC of Antibiotics in the presence of ≤10 μM of 1 (WT P. aeruginosa PAO1): 0.5 µg/mL
FICI in the presence of ≤10 μM of 2 (WT P. aeruginosa PAO1): 0.13
MIC of Antibiotics in the presence of ≤10 μM of 2 (WT P. aeruginosa PAO1): 0.25 µg/mL
FICI in the presence of ≤10 μM of 3 (WT P. aeruginosa PAO1): 0.25
MIC of Antibiotics in the presence of ≤10 μM of 3 (WT P. aeruginosa PAO1): 0.5 µg/mL
MIC of antibiotic alone in PAO1 (WT P. aeruginosa PAO1; antibiotic alone): 4 µg/mL
MICCombination (antibiotic) (PA 100036): 2 µg/mL
FICI (PA 100036): <0.28
MICAntibiotic (PA 100036): 8 µg/mL
FICAntibiotic (PA 100036): 0.250
MICCombination (antibiotic) (PA 101885): 1 µg/mL
FICI (PA 101885): <0.16
MICAntibiotic (PA 101885): 8 µg/mL
MICCombination (antibiotic) (PA 259): 64 µg/mL
FICI (PA 259): <0.19
MICAntibiotic (PA 259): 512 µg/mL
MICCombination (antibiotic) (PA 260): 16 µg/mL
FICI (PA 260): <0.52
MICAntibiotic (PA 260): 32 µg/mL
FICAntibiotic (PA 260): 0.500
MICCombination (antibiotic) (PA 264): 32 µg/mL
FICI (PA 264): <0.28
MICAntibiotic (PA 264): 128 µg/mL
FICAntibiotic (PA 264): 0.250
MICCombination (antibiotic) (PA 114228): 1 µg/mL
FICI (PA 114228): <0.19
MICAntibiotic (PA 114228): 8 µg/mL
MIC of antibiotic alone in PAO200 (PAO200): 2 µg/mL
MIC of antibiotic alone in PAO750 (PAO750): 1 µg/mL
survival of larvae [1]: 100%

C[C@@H](O)[C@H]1C(=O)N2C(C(=O)O)=C(S[C@@H]3CN[C@H](C(=O)N(C)C)C3)[C@H](C)[C@H]12 [Meropenem]
MIC of antibiotic + Compound 2 in PAO1 (WT P. aeruginosa PAO1; + compound 2 ≤8.7 μM, PAO1): 0.25 µg/mL
fold change of MIC + Compound 2 in PAO1 (WT P. aeruginosa PAO1; + compound 2 ≤8.7 μM, PAO1): 4
MIC (WT P. aeruginosa PAO1; PAO1, 18 h, antibiotic alone, WT PAO1 (Table 2), read-out: MIC alone): 1 µg/mL
MIC (WT P. aeruginosa PAO1; PAO1, time-kill study text and FIG. 7 legend, read-out: MIC against WT PAO1): 1 µg/mL
FICI in the presence of ≤10 μM of 1 (WT P. aeruginosa PAO1): 0.25 (0.25)
MIC of Antibiotics in the presence of ≤10 μM of 1 (WT P. aeruginosa PAO1): 0.25 (0.25) μg/ml
FICI in the presence of ≤10 μM of 2 (WT P. aeruginosa PAO1): 0.26
MIC of Antibiotics in the presence of ≤10 μM of 2 (WT P. aeruginosa PAO1): 0.25 µg/mL
FICI in the presence of ≤10 μM of 3 (WT P. aeruginosa PAO1): 0.50
MIC of Antibiotics in the presence of ≤10 μM of 3 (WT P. aeruginosa PAO1): 0.5 µg/mL
MIC of antibiotic alone in PAO1 (WT P. aeruginosa PAO1; antibiotic alone): 1 µg/mL
MICCombination (antibiotic) (PA 100036): 2 µg/mL
FICI (PA 100036): <0.51
MICAntibiotic (PA 100036): 4 µg/mL
FICAntibiotic (PA 100036): 0.500
MICCombination (antibiotic) (PA 101885): 0.5 µg/mL
FICI (PA 101885): <0.16
MICAntibiotic (PA 101885): 4 µg/mL
FICAntibiotic (PA 101885; with compound 2): 0.125
MICCombination (antibiotic) (PA 259): 256 µg/mL
FICI (PA 259): <0.31
MICAntibiotic (PA 259): 1024 µg/mL
FICAntibiotic (PA 259; with compound 2): 0.250
MICCombination (antibiotic) (PA 260): 1 µg/mL
FICI (PA 260): <0.16
MICAntibiotic (PA 260): 8 µg/mL
FICAntibiotic (PA 260): 0.125
MICCombination (antibiotic) (PA 264): 2 µg/mL
FICI (PA 264): <0.05
MICAntibiotic (PA 264): 64 µg/mL
FICAntibiotic (PA 264): 0.0313
MICCombination (antibiotic) (PA 114228): 2 µg/mL
FICI (PA 114228): <0.28
MICAntibiotic (PA 114228): 8 µg/mL
FICAntibiotic (PA 114228; with compound 2): 0.250
MIC of antibiotic + Compound 2 in PAO200 (PAO200; + compound 2 ≤8.7 μM, PAO200): 0.063 µg/mL
fold change of MIC + Compound 2 in PAO200 (PAO200; + compound 2 ≤8.7 μM, PAO200): 4
MIC of antibiotic alone in PAO200 (PAO200): 0.25 µg/mL
MIC of antibiotic + Compound 2 in PAO750 (PAO750; + compound 2 ≤8.7 μM, PAO750): 0.25 µg/mL
fold change of MIC + Compound 2 in PAO750 (PAO750; + compound 2 ≤8.7 μM, PAO750): 4
MIC of antibiotic alone in PAO750 (PAO750): 1 µg/mL
survival of larvae [1]: 100%
dose tolerated by larvae ([1]; Galleria mellonella, in vivo, 96 h): up to 200 mg/kg
